ChEMBL document CHEMBL4118037, “Lactone Derivatives Produced by a Phaeoacremonium sp., an Endophytic Fungus from Senna spectabilis” (J Nat Prod, 2017)

Legend:
[1] = tested on: Cladosporium cladosporioides; assay: Antifungal activity against Cladosporium cladosporioides (Fresen) Vries SPC 140 assessed as detection limit for activity by bioautographic method; assay type: functional
[2] = tested on: Cladosporium sphaerospermum; assay: Antifungal activity against Cladosporium sphaerospermum (Perzig) SPC 491 assessed as detection limit for activity by bioautographic method; assay type: functional
HeLa = assay: Cytotoxicity against human HeLa cells assessed as reduction in cell viability by MTT assay; assay type: functional, cell-based

Compound	Activity [1] [µg]	Activity [2] [µg]	IC50 (HeLa) [µM]
NYSTATIN	1	1	
CC[C@@]1(O)C(=O)OCc2c1cc1n(c2=O)Cc2cc3ccccc3nc2-1 [CAMPTOTHECIN]			0.12
CCCCCCC[C@H]1OC2=C(C(=O)O[C@@H]2C)[C@@H](O)[C@]1(C)O	5	5	100
CCCCCCC[C@H]1OC2=C(C(=O)O[C@@]2(C)O)[C@@H](O)[C@]1(C)O			> 100
CCCCCCC[C@H]1OC2=C(C(=O)O[C@@H]2C)[C@@H](O)[C@@]1(C)O	25	25	> 100
CCCCCCC[C@H]1OC2=C(C(=O)[C@@H](C)O2)[C@@H](O)[C@]1(C)O	5	5	50
